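Where inhibition never reached the appropriate level, the endpoint shown equals the highest concentration tested. Otherwise, values were interpolated linearly from a five-concentration, 48-hour dose response in 96-well plates. TGI is the concentration that stops growth completely.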
Tests used:
Assay in all cases: inhibition of tumour cell growth, NCI panel, 48 h
SK-OV-3 ovarian = test system: SK-OV-3 ovarian
OVCAR-5 ovarian = test system: OVCAR-5 ovarian
K-562 leukemia = test system: K-562 leukemia
786-0 renal = test system: 786-0 renal
ACHN renal = test system: ACHN renal
UACC-257 melanoma = test system: UACC-257 melanoma
OVCAR-8 ovarian = test system: OVCAR-8 ovarian
NCI/ADR-RES ovarian = test system: NCI/ADR-RES ovarian
OVCAR-3 ovarian = test system: OVCAR-3 ovarian
COLO 205 colon = test system: COLO 205 colon
HCC-2998 colon = test system: HCC-2998 colon
UACC-62 melanoma = test system: UACC-62 melanoma
NCI-H522 lung = test system: NCI-H522 lung
RXF 393 renal = test system: RXF 393 renal
MDA-MB-435 = test system: MDA-MB-435
HS 578T breast = test system: HS 578T breast
U251 CNS = test system: U251 CNS
HOP-62 NSCLC = test system: HOP-62 NSCLC
DU-145 prostate = test system: DU-145 prostate
HCT-15 colon = test system: HCT-15 colon
NCI-H460 lung = test system: NCI-H460 lung
HOP-92 NSCLC = test system: HOP-92 NSCLC
MCF7 breast = test system: MCF7 breast
MDA-MB-231 breast = test system: MDA-MB-231 breast
SF-295 CNS = test system: SF-295 CNS
SK-MEL-2 melanoma = test system: SK-MEL-2 melanoma
SF-268 CNS = test system: SF-268 CNS
UO-31 renal = test system: UO-31 renal
HT29 colon = test system: HT29 colon
SN12C renal = test system: SN12C renal
MDA-N = test system: MDA-N
LOX IMVI melanoma = test system: LOX IMVI melanoma
SW-620 colon = test system: SW-620 colon
HCT-116 colon = test system: HCT-116 colon
SF-539 CNS = test system: SF-539 CNS
RPMI-8226 leukemia = test system: RPMI-8226 leukemia
SNB-75 CNS = test system: SNB-75 CNS
EKVX NSCLC = test system: EKVX NSCLC
TK-10 renal = test system: TK-10 renal
OVCAR-4 ovarian = test system: OVCAR-4 ovarian
NCI-H226 lung = test system: NCI-H226 lung
IGROV1 ovarian = test system: IGROV1 ovarian
MOLT-4 leukemia = test system: MOLT-4 leukemia
KM12 colon = test system: KM12 colon
SNB-19 CNS = test system: SNB-19 CNS
A498 renal = test system: A498 renal
PC-3 prostate = test system: PC-3 prostate
SK-MEL-28 melanoma = test system: SK-MEL-28 melanoma
BT-549 breast = test system: BT-549 breast
T-47D breast = test system: T-47D breast
A549 NSCLC = test system: A549 NSCLC
SK-MEL-5 melanoma = test system: SK-MEL-5 melanoma
M14 melanoma = test system: M14 melanoma
MALME-3M melanoma = test system: MALME-3M melanoma
NCI-H23 lung = test system: NCI-H23 lung
CAKI-1 renal = test system: CAKI-1 renal
CCRF-CEM leukemia = test system: CCRF-CEM leukemia
HL-60(TB) leukemia = test system: HL-60(TB) leukemia
SR leukemia = test system: SR leukemia

## COc1ccc(N=C(C)c2ccncc2)cc1
SK-OV-3 ovarian
  TGI: > 100 µM
OVCAR-5 ovarian
  TGI: > 100 µM
K-562 leukemia
  TGI: > 100 µM
786-0 renal
  TGI: > 100 µM
ACHN renal
  TGI: > 100 µM
UACC-257 melanoma
  TGI: > 100 µM
OVCAR-8 ovarian
  TGI: > 100 µM
NCI/ADR-RES ovarian
  TGI: > 100 µM
OVCAR-3 ovarian
  TGI: > 100 µM
COLO 205 colon
  TGI: > 100 µM
HCC-2998 colon
  TGI: > 100 µM
UACC-62 melanoma
  TGI: > 100 µM
NCI-H522 lung
  TGI: > 100 µM
RXF 393 renal
  TGI: > 100 µM
MDA-MB-435
  TGI: > 100 µM
HS 578T breast
  TGI: > 100 µM
U251 CNS
  TGI: > 100 µM
HOP-62 NSCLC
  TGI: > 100 µM
DU-145 prostate
  TGI: > 100 µM
HCT-15 colon
  TGI: > 100 µM
NCI-H460 lung
  TGI: > 100 µM
HOP-92 NSCLC
  TGI: > 100 µM
MCF7 breast
  TGI: > 100 µM
MDA-MB-231 breast
  TGI: > 100 µM
SF-295 CNS
  TGI: > 100 µM
SK-MEL-2 melanoma
  TGI: > 100 µM
SF-268 CNS
  TGI: > 100 µM
UO-31 renal
  TGI: > 100 µM
HT29 colon
  TGI: > 100 µM
SN12C renal
  TGI: > 100 µM
MDA-N
  TGI: > 100 µM
LOX IMVI melanoma
  TGI: > 100 µM
SW-620 colon
  TGI: > 100 µM
HCT-116 colon
  TGI: > 100 µM
SF-539 CNS
  TGI: 61.4 µM
RPMI-8226 leukemia
  TGI: > 100 µM
SNB-75 CNS
  TGI: > 100 µM
EKVX NSCLC
  TGI: > 100 µM
TK-10 renal
  TGI: > 100 µM
OVCAR-4 ovarian
  TGI: > 100 µM
NCI-H226 lung
  TGI: > 100 µM
IGROV1 ovarian
  TGI: > 100 µM
MOLT-4 leukemia
  TGI: > 100 µM
KM12 colon
  TGI: > 100 µM
SNB-19 CNS
  TGI: > 100 µM
A498 renal
  TGI: > 100 µM
PC-3 prostate
  TGI: > 100 µM
SK-MEL-28 melanoma
  TGI: > 100 µM
BT-549 breast
  TGI: > 100 µM
T-47D breast
  TGI: > 100 µM
A549 NSCLC
  TGI: > 100 µM
SK-MEL-5 melanoma
  TGI: > 100 µM
M14 melanoma
  TGI: > 100 µM
MALME-3M melanoma
  TGI: > 100 µM
NCI-H23 lung
  TGI: > 100 µM
CAKI-1 renal
  TGI: > 100 µM
CCRF-CEM leukemia
  TGI: > 100 µM

## CC1(c2nc3cc(Cl)c(Cl)cc3[nH]2)CCC(CO)C(C)(C)O1 (centres undefined)
SK-OV-3 ovarian
  TGI: > 100 µM
OVCAR-5 ovarian
  TGI: > 100 µM
K-562 leukemia
  TGI: > 100 µM
786-0 renal
  TGI: > 100 µM
ACHN renal
  TGI: > 100 µM
UACC-257 melanoma
  TGI: > 100 µM
OVCAR-8 ovarian
  TGI: 61.4 µM
NCI/ADR-RES ovarian
  TGI: 44.5 µM
OVCAR-3 ovarian
  TGI: 74.3 µM
COLO 205 colon
  TGI: 73.8 µM
HCC-2998 colon
  TGI: > 100 µM
UACC-62 melanoma
  TGI: 39.2 µM
NCI-H522 lung
  TGI: 30.3 µM
RXF 393 renal
  TGI: > 100 µM
MDA-MB-435
  TGI: > 100 µM
HS 578T breast
  TGI: 53.9 µM
U251 CNS
  TGI: > 100 µM
HOP-62 NSCLC
  TGI: > 100 µM
DU-145 prostate
  TGI: > 100 µM
HCT-15 colon
  TGI: > 100 µM
HL-60(TB) leukemia
  TGI: 36.7 µM
HOP-92 NSCLC
  TGI: > 100 µM
MCF7 breast
  TGI: > 100 µM
SR leukemia
  TGI: > 100 µM
MDA-MB-231 breast
  TGI: 77.6 µM
SF-295 CNS
  TGI: 95.3 µM
SK-MEL-2 melanoma
  TGI: 90.4 µM
SF-268 CNS
  TGI: > 100 µM
UO-31 renal
  TGI: 39.9 µM
HT29 colon
  TGI: 34.2 µM
SN12C renal
  TGI: > 100 µM
MDA-N
  TGI: > 100 µM
LOX IMVI melanoma
  TGI: > 100 µM
SW-620 colon
  TGI: > 100 µM
HCT-116 colon
  TGI: > 100 µM
SF-539 CNS
  TGI: 70.5 µM
RPMI-8226 leukemia
  TGI: > 100 µM
SNB-75 CNS
  TGI: 66.9 µM
EKVX NSCLC
  TGI: 87 µM
TK-10 renal
  TGI: > 100 µM
OVCAR-4 ovarian
  TGI: > 100 µM
NCI-H226 lung
  TGI: 56.6 µM
IGROV1 ovarian
  TGI: 77.6 µM
MOLT-4 leukemia
  TGI: > 100 µM
KM12 colon
  TGI: 38.6 µM
SNB-19 CNS
  TGI: > 100 µM
PC-3 prostate
  TGI: 97.3 µM
SK-MEL-28 melanoma
  TGI: 92 µM
BT-549 breast
  TGI: 44.8 µM
T-47D breast
  TGI: > 100 µM
A549 NSCLC
  TGI: > 100 µM
SK-MEL-5 melanoma
  TGI: 27.1 µM
M14 melanoma
  TGI: 92.5 µM
MALME-3M melanoma
  TGI: 84 µM
NCI-H23 lung
  TGI: 76.4 µM
CAKI-1 renal
  TGI: > 100 µM
CCRF-CEM leukemia
  TGI: > 100 µM
